Results reported in patent US12075697B2, “Inert solution-processable molecular chromophores for organic electronic devices” (The Regents of the University of California, priority 2012, dated 2024).

Key:
Assay type in all cases: physicochemical
[1] = Solution cyclic voltammetry (HOMO/LUMO levels)
Description: (§1) Optical properties were investigated using UV-visible absorption spectroscopy. […] Solution cyclic voltammetry measurements indicated the highest occupied molecular orbital (HOMO) and lowest unoccupied molecular orbital (LUMO) were −5.12 and −3.34 eV, respectively, and line up appropriately with the frontier molecular orbitals of common fullerene acceptors.
Electrochemistry: All electrochemical measurements were performed using CHI instrument model 730B in a standard three-electrode, one compartment configuration equipped with Ag/AgCl electrode, Pt wire and Glassy carbon electrode (dia. 3 mm), as the pseudo reference, counter electrode and working electrode respectively. Glassy carbon electrodes were polished with alumina. The cyclic voltammetry (CV) experiments were performed in anhydrous dichloromethane solution with ˜0.1 M tetrabutylammonium hexafluorophosphate (TBAPF6) as the supporting electrolyte at scan rate 50 mV/s unless otherwise stated. All electrochemical solutions were purged with dry Ar for 15 minutes to deoxygenate the system. Solution CV measurements were carried out with a small molecule concentration of ˜1 mg/mL in CH2Cl2. Ferrocene was used as an internal standard. The HOMO and LUMO levels were obtained by correlating the onsets (Eox^Fc/Fc+, Erd^Fc/Fc+) to the normal hydrogen electrode (NHE), assuming HOMO of Fc/Fc^+ to be 4.88 eV.

[2] = UV-visible absorption spectroscopy; conditions: for optical band gap: from λonset
Description: as §1
UV-vis: UV-visible spectroscopy were recorded using either a Beckman Coulter DU 800 series or Perkin Elmer Lambda 750 spectrophotometer at room temperature unless otherwise noted. All solution UV-vis experiments were run in CHCl3. Films were prepared by spin-coating CHCl3 or chlorobenzene solutions onto glass substrates. Films were annealed directly on a hot plate for 2 minutes.

[3] = Acid sensitivity: solution absorption profile as function of trifluoroacetic acid concentration; conditions: trifluoroacetic acid in chloroform, up to ten equivalents
Excerpt: To probe acid sensitivity, the solution absorption profiles of p-DTS(FBTTh2)2 (see Scheme 1, above) and d-DTS(PTTh2)2
[drawing 71] a pyridine-containing analog, were monitored as function of concentration of trifluoroacetic acid.

CCCCCCc1ccc(-c2ccc(-c3cc(F)c(-c4cc5c(s4)-c4sc(-c6c(F)cc(-c7ccc(-c8ccc(CCCCCC)s8)s7)c7nsnc67)cc4[Si]5(CC(CC)CCCC)CC(CC)CCCC)c4nsnc34)s2)s1 (stereo not drawn) [p-DTS(FBTTh2)2, 7,7′-(4,4-bis(2-ethylhexyl)-4H-silolo[3,2-b:4,5-b′]dithiophene-2,6-diyl)bis(6-fluoro-4-(5′-hexyl-[2,2′-bithiophen]-5-yl)benzo[c][1,2,5]thiadiazole)]
highest occupied molecular orbital (HOMO) [1]: −5.12 eV
lowest unoccupied molecular orbital (LUMO) [1]: −3.34 eV
λmax ([2]; solid state (thin film)): 678 nm
λonset ([2]; solid state (thin film)): 800 nm
optical band gap ([2]; solid state): 1.55 eV
λmax ([2]; solution (chloroform)): 590 nm
λonset ([2]; solution (chloroform)): 670 nm
optical band gap ([2]; solution (chloroform)): 1.85 eV
change of absorption spectrum on addition of acid [3]: remains effectively unchanged
